# According to patent US9642922B2, “Caspase-triggered nano-aggregation probes and methods of use” (The Board of Trustees of the Leland Stanford Junior …, priority 2013, dated 2017):
# Numbered stars: 1 amine (or outer) side, 2 acyl side, 3 side chain; on linkers, the order of the positions; unused ones are H or OH. Square brackets hold non-standard residues; d marks the D form. Peptide text beside a SMILES is read from it. * marks the point of attachment. DOTA = O=C(O)CN1CCN(CC(=O)O)CCN(CC(=O)*)CCN(CC(=O)O)CC1; X1 = O=C(C1CSC(c2nc3ccc(N[*:1])cc3s2)=N1)[*:2]; X2 = N#Cc1ccc2cc(OCCCN*)ccc2n1; SEt = CCS*
# Assays:
# [1] = molecular target: T1, recombinant human caspase-7 (Homo sapiens, UniProt P55210); assay: HPLC enzyme specificity assay of C-SNAF, caspase-7; assay type: biochemical; details: 25 μM probe, 0.735 μg/ml enzyme
# T1 construct: purchased Calbiochem; host or cells: E. coli
# Description: The specificity of C-SNAF towards other representative cysteine proteases such as caspase-7, caspase-9, cathepsin B, and legumain was examined.
# Caspase (human, recombinant from E. coli) assays were performed for caspase-3 (4.9×10^−3 U; 7.35×10^−4 mg, Sigma), −7 (18.3 U; 7.35×10^−4 mg, Calbiochem), and −9 (0.3 U; 7.35×10^−4 mg, Calbiochem). All caspase assays were conducted in caspase buffer with 50 mM HEPES, 100 mM NaCl, 1 mM EDTA, 10 mM TCEP, 10% glycerol, and 0.1% CHAPS at pH 7.4. Cathepsin B (human liver; 0.27 U; 7.35×10^−4 mg, Calbiochem) and Legumain (human, recombinant from mouse myeloma cell line; >250 pmol/min/μg; 7.35×10^−4 mg, R&D Systems) were conducted in reaction buffer with 50 mM sodium acetate, 50 mM NaCl, 0.5 mM EDTA and 10 mM TCEP at pH 5.5. C-SNAF was diluted in the respective enzyme reaction buffer (25 μM, 1 mL) and remained at room temperature for 10 min, to which was then added the respective enzymes. Reactions were performed at 37° C., and monitored by HPLC hourly. The percentage conversion of the reaction was calculated based on the percentage of peak area of C-SNAF-cycl in the HPLC trace at 675 nm UV detection, which indicated the efficacy of enzyme cleavage of C-SNAF.
# subcutaneous HeLa tumors [2] = assay: In vivo fluorescence imaging of DOX-treated HeLa tumor-bearing mice; design: species or system mouse
# Description: C-SNAF or either of the control probes (5 nmol) was administered intravenously to tumor-bearing mice and whole animal fluorescence was longitudinally monitored using a Maestro fluorescence imager.
# To establish tumors in 6-week-old female nu/nu mice, 2×10^6 HeLa cells suspended in 50 μL of a 50% v/v mixture of Matrigel in supplemented DMEM (10% FBS, 1% penstrep) were injected subcutaneously in the shoulders of the mouse. Tumors were grown until a single aspect was 0.7 to 0.9 cm (approximately 10-15 days), and then treatment consisting of 8 mg/kg DOX or saline was initiated. Treatments were administered intravenously once every 4 d for a total of three times. Total mouse body weight and tumor size (width and length by caliper) was measured every other day. Tumor volumes were calculated assuming ellipsoid shape with the formula (l×w^2)/2.
# Two days following the final treatment, 5 nmol probe in saline was injected intravenously and fluorescence imaging began immediately on a Maestro hyperspectral fluorescent imaging system (PerkinElmer, Mass., USA) using a 635±25 nm excitation filter and a 675 nm long-pass emission filter, with images acquired from 670 to 900 nm. Tissue autofluorescence and Cy5.5 fluorescence were deconvolved, and tumor fluorescence intensity was quantified by region of interest measurement using Nuance v.3.0.1.2 software (Perkin Elmer, Mass., USA).
# subcutaneous HeLa tumors [3] = assay: In vivo MR imaging of doxorubicin-treated HeLa tumors; design: species or system mouse
# Description: Evaluation of activatable contrast agent probe 15 for MR imaging of caspase-3 activity in vivo was performed in nude mice bearing subcutaneous HeLa tumors. Tumors were implanted and grown for 10-15 days before receiving intratumoral injections of two doses of 0.2 mg doxorubicin separated by 2 days. Probe 15 or 1-ctrl (19) (0.1 mmol kg^−1) was injected intravenously the day before treatment (baseline) and four days post-treatment (treated). Spin-echo T1-weighted multislice MR images at 1 T were recorded before (pre-contrast) and every 4 min after contrast agent administration (post-contrast), and scanning was carried out for 4 h post-contrast for each mouse. Much brighter MR signals (T1 contrast) were observed 40 and 120 min after injection with probe 15 in treated tumors as compared to that in baseline tumors (FIG. 29A), or in treated tumors with 1-ctrl (19) (FIG. 29B).
# In vivo MR imaging was performed on an Aspect M2 1T permanent magnet (Aspect Imaging, Shoham, Israel) using a 40 mm Transmit/Receive mouse body coil. During imaging, the animals were anaesthetized with isofluorane and their respiration and body temperature were constantly monitored. Intravenous contrast injection at 0.1 mmol/kg concentration was administered in a 100 μL volume for every imaging session. Multi-slice (312 μm in-plane, 12 slices with 1 mm thickness) T1-weighted spin echo images (TE/TR=8.9/250 ms, matrix 128×128, FOV=40 mm, NEX=6) were acquired, one before contrast injection and then every 4 min up to 4 h after contrast injection. A 1 mM Dotarem reference tube was inserted in the field of view to enable inter-session variability correction during post-processing. Each animal underwent two imaging session; one before DOX treatment (baseline), and one after DOX treatment (treated).
# Acquired MR data were transferred as DICOM images to an offline workstation and ImageJ (NIH) was used for post processing and quantitative image analysis. This consisted of manual segmentation of tumor ROI for each slice, slice-wise normalization of mean tumor signal intensity with the 1 mM Dotarem reference standard to account for inter-session variability, followed by combining these normalized, slice-wise values to generate mean volumetric tumor signal intensities (SI) for each time point.
# Signal enhancement was calculated at each time point as the difference between the tumor SI at that time point and the tumor SI in the pre-contrast (t=0) dataset. SE(t)=SI(t)−SI(t=0); for each mouse, for every session
# This metric was used to quantify the difference in SE between the baseline (before DOX treatment) session and the treated session for each mouse, as a means to tease out the difference between the two contrast agents, probe 1 and 1-cntl (19) over the time course of the imaging session. % D(t)=[SE(t,treated)−SE(t,baseline)]/SE(t,baseline); for each mouse.
# T1 sequence (P55210 24-198 limits assumed): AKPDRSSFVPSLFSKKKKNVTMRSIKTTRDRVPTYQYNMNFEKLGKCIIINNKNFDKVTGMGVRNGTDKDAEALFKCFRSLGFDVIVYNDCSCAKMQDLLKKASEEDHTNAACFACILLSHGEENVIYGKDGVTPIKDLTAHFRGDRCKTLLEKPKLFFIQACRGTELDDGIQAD
# T1 sequence (P55210 207-303 limits assumed): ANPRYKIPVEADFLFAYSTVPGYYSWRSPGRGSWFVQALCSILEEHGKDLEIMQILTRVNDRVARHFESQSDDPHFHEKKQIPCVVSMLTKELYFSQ
Structure (SMILES),selectivity of activation by caspase-7 [1],time of maximum tumor fluorescence after administration (subcutaneous HeLa tumors [2]; 5 nmol i.v.) [h],"correlation (r) of maximum tumor fluorescence with maximum tumor size change (subcutaneous HeLa tumors [2]; 3×DOX-treated mice, 1 h after probe)","increase in fluorescence signal in DOX-treated tumors compared to saline-treated (subcutaneous HeLa tumors [2]; 4 h after 5 nmol probe, 3×DOX) [fold]",time of maximum SI enhancement in treated tumors after administration (subcutaneous HeLa tumors [3]; 0.1 mmol kg^−1 i.v.) [min],"% difference in tumor SI enhancement, treated versus baseline (subcutaneous HeLa tumors [3]; 20 min) [%]","% difference in tumor SI enhancement, treated versus baseline (subcutaneous HeLa tumors [3]; 120 min) [%]",SI enhancement in treated mice higher than with 1-ctrl (19) (subcutaneous HeLa tumors [3]; 120 min after injection) [%],"Gd uptake in tumors (ICP-MS) (subcutaneous HeLa tumors [3]; mouse, in vivo)"
CCSSC[C@@H](NC(=O)[C@H](CC(=O)O)NC(=O)[C@@H](NC(=O)[C@H](CCC(=O)O)NC(=O)[C@H](CC(=O)O)NC(C)=O)C(C)C)C(=O)N[C@@H](CCCCNC(=O)CCCCCN1C(=CC=CC=CC2=[N+](CC)c3ccc4c(S(=O)(=O)[O-])cc(S(=O)(=O)O)cc4c3C2(C)C)C(C)(C)c2c1ccc1c(S(=O)(=O)O)cc(S(=O)(=O)O)cc21)C(=O)Nc1ccc2nc(C3=N[C@@H](C(=O)NCCCOc4ccc5nc(C#N)ccc5c4)CS3)sc2c1 [C-SNAF],high selectivity of the probe toward effector caspases-3 and -7,1,−0.9,1.6,,,,,
CCSSCC(NC(=O)C(CC(=O)O)NC(=O)C(NC(=O)C(CCC(=O)O)NC(=O)C(CC(=O)O)NC(C)=O)C(C)C)C(=O)NC(CCCCNC(=O)CN1CCN(CC(=O)[O-])CCN(CC(=O)[O-])CCN(CC(=O)[O-])CC1)C(=O)Nc1ccc2nc(C3=NC(C(=O)NCCCOc4ccc5nc(C#N)ccc5c4)CS3)sc2c1.[Gd+3] (stereo not drawn) [probe 15] (Ac-DEVDC(SEt)K(DOTA)[X1]-X2; configuration not given here),,,,,40,62,169,77,higher Gd level in treated tumors
